{"source": "patent US12150919B2", "about": "(priority 2023, dated 2024)", "type_in_all_cases": "in vivo, white mice of Swiss strain", "key": {"[1]": {"tested_on": "doxorubicin-induced skin ulcers", "test": "doxorubicin-induced skin ulcers in white mice: ulcer area and macroscopic state", "source_text": "(§1) Research indicators during burn treatment including: (A) macromorphological index, (B) quantification of hydroxyproline concentration in damaged tissue, and (C) micromorphic index; wherein: • (A) macromorphological index: • Injury status at the burn: swelling, heat, redness, edema observed by eye and recorded by digital camera; • Measure the burn area at 7, 14, and 21 days after causing the burn.\nEvaluation of the scar healing effect of the composition 100 and composition 200 in experiments. The model was based on previous studies of doxorubicin-induced skin ulcers in white mice of Swiss strain, both breeds, healthy, weight 30-35 g. White mice of both breeds of both breeds were randomly divided into 5 lots, each batch of 10 animals as follows: • Lot 1: Intradermal injection of physiological saline, no applying DMSO/composition 100/composition 200; • Lot 2: Intradermal injection of doxorubicin 1 mg/0.5 ml, to heal the ulcer naturally; • Lot 3: Intradermal injection of doxorubicin 1 mg/0.5 ml, for ulcer progression for 7 days. Then, drop 0.1 ml of DMSO on the ulcerated area, 2 times a day, use within 21 days; • Lot 4: Intradermal injection of doxorubicin 1 mg/0.5 ml, for ulcer progression for 7 days. Then, apply the composition 100 with dose of 0.1 ml/ulcer/time, 2 times/day, used for 21 days; and • Lot 5: Intradermal injection of doxorubicin 1 mg/0.5 ml, for ulcer progression for 7 days. Then, apply the composition 200 with dose of 0.1 ml/ulcer/time, with a frequency of twice daily, and used for 21 days.\n(§2) Research indicators during scar healing including: (A) macromorphological index, (B) quantification of hydroxyproline concentration in damaged tissue, and (C) micromorphic index; all was samed as the burn treatment research experimental."}, "[2]": {"tested_on": "doxorubicin-induced skin ulcers", "test": "hydroxyproline concentration in skin of mice with doxorubicin-induced ulcers", "conditions": "doxorubicin-induced skin ulcer model; at the end of the study (21 days of application)", "source_text": "as §1\n(§3) Evaluation of the scar healing effect of the composition 100 and composition 200 in experiments. The model was based on previous studies of doxorubicin-induced skin ulcers in white mice of Swiss strain, both breeds, healthy, weight 30-35 g. White mice of both breeds of both breeds were randomly divided into 5 lots, each batch of 10 animals as follows: • Lot 1: Intradermal injection of physiological saline, no applying DMSO/composition 100/composition 200; • Lot 2: Intradermal injection of doxorubicin 1 mg/0.5 ml, to heal the ulcer naturally; • Lot 3: Intradermal injection of doxorubicin 1 mg/0.5 ml, for ulcer progression for 7 days. […]\nas §2"}, "[3]": {"tested_on": "doxorubicin-induced skin ulcers", "test": "micromorphic index of the skin at the ulcer", "conditions": "mice", "source_text": "as §1, §3, §2"}}, "data": [{"smiles": "C[S+](C)[O-]", "note": "[DMSO, dimethyl sulfoxide]", "values": [{"measurement": "Area of skin ulcers After 7 days (x ± SD)", "setting": "[1]; 0.1 ml on ulcer 2 times a day, after 7 days", "result": "50.13 ± 12.55", "unit": "mm^2"}, {"measurement": "Area of skin ulcers After 14 days Median (quartile)", "setting": "[1]; 0.1 ml on ulcer 2 times a day, after 14 days, median", "result": 7.13, "unit": "mm^2"}, {"measurement": "Area of skin ulcers After 21 days Median (quartile)", "setting": "[1]; 0.1 ml on ulcer 2 times a day, after 21 days, median", "result": 0, "unit": "mm^2"}, {"measurement": "macroscopic state of the ulcerated skin area", "setting": "[1]; at the end of the study", "result": "significantly reduced and almost completely healed skin ulcers"}, {"measurement": "Area of skin ulcers Before applied (x ± SD)", "setting": "[1]; before applied (baseline)", "result": "75.71 ± 14.02", "unit": "mm^2"}, {"measurement": "Hydroxyproline concentrations in mouse skin (x ± SD)", "setting": "[2]", "result": "15.04 ± 2.35", "unit": "mg/g skin"}, {"measurement": "micromorphic images of the skin at the ulcer", "setting": "[3]", "result": "the skin has regenerated to form the epidermis, no formation of skin-dependent glands, less blood vessels"}]}]}
